# Results reported in PubChem BioAssay (NCI).
# Several values for one entry are separate records, joined by “and”; a condition that tells them apart may be missing. Equal values may be shown once.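 Cells were grown in 96-well plates and exposed to each compound for 48 hours at five concentrations; endpoints were interpolated linearly between bracketing concentrations, or set to the highest concentration if not reached. The concentration for 50% growth inhibition is given as GI50. TGI is the concentration that stops growth completely.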
# Columns and labels:
# Test in all cases: NCI-60 cell line screen, 48 h
# [1] = system: CAKI-1 renal
# [2] = system: COLO 205 colon
# [3] = system: HCC-2998 colon
# [4] = system: HCT-116 colon
# [5] = system: SK-MEL-5 melanoma
# [6] = system: SNB-75 CNS
# [7] = system: SW-620 colon
# [8] = system: UO-31 renal
# [9] = system: MCF7 breast
# [10] = system: MDA-MB-231 breast
SMILES,TGI [1] [µM],TGI [2] [µM],TGI [3] [µM],TGI [4],TGI [5],TGI [6] [µM],TGI [7],TGI [8],GI50 [1] [µM],GI50 [2] [µM],GI50 [9] [µM],TGI [9] [µM],GI50 [10] [µM],TGI [10] [µM],GI50 [5] [µM],GI50 [6] [µM],GI50 [7] [µM],GI50 [8] [µM],GI50 [3] [µM],GI50 [4] [µM]
CC1(C)COC2C(N(Cc3ccccc3)Cc3ccccc3)C(=O)N21 (stereo unspecified),> 100,61.8,> 100,> 100 µM,> 100 µM,41.2,> 100 µM,> 100 µM,,,,,,,,,,,,
CCOC(=O)c1sc(-c2ccc(OS(=O)(=O)C[C@]34CCC(CC3=O)C4(C)C)c(C=O)c2)nc1C,2.67,2.62,,,1.59 µM,2.8,2.69 µM,4.65 µM,0.667,1.07,0.858,2.47,1.03,2.66,0.877,0.781,1.04,1.05,,
COc1ccc(O)c(C(=O)CCC(=O)O)c1,,> 100,> 100,,> 100 µM,> 100,> 100 µM,> 100 µM,,,,,,,,,,,,
CCC1=CCN(c2cc(C)ccn2)OC1c1ccccc1 (stereo unspecified),> 100,> 100,81.7,> 100 µM,,> 100,> 100 µM,> 100 µM,,,,,,,,,,,,
COc1cc2c(c3c1c(=O)c1ccccc1n3C)C=CC(C)(C)O2,> 100,> 100,,> 100 µM,> 100 µM,> 100,> 100 µM,> 100 µM,,,,,,,,,,,,
COC/N=C(\NC#N)NCOC,> 100,> 85.1,> 100,> 100 µM,> 100 µM,> 100,> 59.7 µM,> 100 µM,,,,,,,,,,,,
C=C1C(=O)O[C@H]2[C@H]1CC/C(COC(=O)NCc1ccc(Cn3c(=O)sn(CCCCC)c3=O)cc1)=C\CC[C@@]1(C)O[C@@H]21,12.9,3.33,11.1,3.7 µM,14.3 µM,4.07,2.85 µM,2.8 µM,2.84,1.78,,,1.72,3.46,3.92,1.59,1.31,1.46,3.55,1.73
O=c1cc(-c2ccccc2)[nH]c2cc(F)cc(F)c12,> 100,38.9,,> 100 µM,> 100 µM,46.9,> 100 µM,> 100 µM,,,,,,,,,,,,
CN/N=C(/c1nc2ccc([N+](=O)[O-])cc2[nH]c1=O)C(O)c1ccc(C(O)/C(=N\NC)c2nc3ccc([N+](=O)[O-])cc3[nH]c2=O)cc1 (stereo unspecified),> 100,> 100,95.1,> 100 µM,> 100 µM,> 100,> 100 µM,> 100 µM,,,,,,,,,,,,
O=C1CCC2(c3ccccc3)Nc3ccccc3N12 (stereo unspecified),> 100,> 100,> 100,,> 100 µM,> 100,> 100 µM,> 100 µM,,,,,,,,,,,,
Cc1ccc(S(=O)(=O)c2nc(-c3ccccc3)oc2S(C)(=O)=O)cc1,3.21,3.21,32.2,3.25 µM,,18,4.21 µM,2.81 µM,1.8,1.7,,,1.87,3.76,,6.39,2.05,1.48,17.9,1.78
CC1=Nc2ccccc2SC(c2c(Cl)cccc2Cl)C1 (stereo unspecified),5.3,3.12,3.18,0.616 µM,3.06 µM,5.67,1.34 µM,3.09 µM,,,,,,,,,,,,
Clc1ccccc1CN1COc2c(ccc3cccnc23)C1,12.8,24.8,19.6,9.66 µM,8.93 µM,21.1,12.4 µM,7.2 µM,,,,,,,,,,,,
CC(=O)c1ccc(NC(=O)C(=O)C(C(=O)/C=C/c2ccccc2)C2OC(=O)c3ccccc32)cc1 (stereo unspecified),> 100,> 100,> 100,> 100 µM,> 100 µM,> 100,> 100 µM,> 100 µM,,,,,,,,,,,,
CC1(C)OC(=S)N(c2ccccc2)C12C=Cc1cc3ccccc3nc1S2 (stereo unspecified),,> 100,> 100,> 100 µM,> 100 µM,> 100,> 100 µM,> 100 µM,,,,,,,,,,,,
CCOc1cccc2c1N[S@@](=O)S2,> 100,,,> 100 µM,,> 100,> 100 µM,> 100 µM,,,,,,,,,,,,
N=c1c2ccccc2sc2nc3ccccc3n12,> 100,> 100,> 100,,> 100 µM,,> 100 µM,> 100 µM,,,,,,,,,,,,
CN(C)c1ccc(/C=C(\NC(=O)c2ccccc2)c2nc3ccc4c(c3[nH]2)C(=O)c2ccccc2C4=O)cc1,> 100,> 100,> 100,> 100 µM,> 100 µM,64.2,> 100 µM,7.37 µM,,,,,,,,,,,,

SMILES,TGI [1] [µM],TGI [2] [µM],TGI [3] [µM],TGI [4],TGI [5],TGI [6] [µM],TGI [7],TGI [8],GI50 [1] [µM],GI50 [2] [µM],GI50 [9] [µM],TGI [9] [µM],GI50 [10] [µM],TGI [10] [µM],GI50 [5] [µM],GI50 [6] [µM],GI50 [7] [µM],GI50 [8] [µM],GI50 [3] [µM],GI50 [4] [µM]
NC(=O)c1cccnc1,> 100,> 100,,> 100 µM,,> 100,> 100 µM,,> 100,> 100,> 100,> 100,> 100,> 100,,> 100,> 100,,,> 100
COc1ccc(/C=C2\CCC(CCN(C)C)(C3=CCCC3)C2=O)cc1 (stereo unspecified),22.8,25.9,32.9,29.1 µM,30.3 µM,55.2,31 µM,28.2 µM,,,,,,,,,,,,
CC(C)(C)NCC(O)COc1c(Br)c(Br)c(Br)c2c1OC(C)(C)C2 (stereo unspecified),3.22,3.2,,,2.89 µM,,3.1 µM,3.23 µM,1.71,1.55,1.76,3.24,1.54,3.01,1.55,,1.7,1.76,,
COc1ccc(/C=C(\NC(=O)c2ccccc2)c2nc3ccccc3[nH]2)cc1OC,> 100,> 100,> 100,> 100 µM,> 100 µM,> 100,> 100 µM,> 100 µM,,,,,,,,,,,,
CCOC(=O)C1Cc2ccc3c4c(ccc(c24)C1)CC(C(=O)OCC)C3,,> 100,> 100,> 100 µM,> 100 µM,> 100,> 100 µM,> 100 µM,,,,,,,,,,,,
COC(=O)C(=O)C(CC(=O)Nc1ccc(C)cc1)C(=O)OC (stereo unspecified),> 100,,> 100,> 100 µM,> 100 µM,,> 100 µM,> 100 µM,,,,,,,,,,,,
C#CCN(N=O)C(=O)ON1C(=O)CCC1=O,,> 100,,> 100 µM,> 100 µM,> 100,> 100 µM,> 100 µM,,,,,,,,,,,,
COc1cc(C(=O)N[C@H]2CCc3cc(OC)c(OC)c(OC)c3-c3ccc(SC)c(=O)cc32)cc(OC)c1OC,,,0.159,3.02 µM and 17 µM,0.324 µM and 0.0331 µM,48.6,25 µM and > 100 µM,25 µM and 22.2 µM,,,,,,,,,,0.266,,
COC(=O)c1cc(=O)nc2cc3cccccc3n12,,> 100,> 100,> 100 µM,> 100 µM,> 100,> 100 µM,> 100 µM,,,,,,,,,,,,
C1=Cc2nc1c(-c1ccccc1)c1ccc([nH]1)c(-c1ccccc1)c1nc(c(-c3ccccc3)c3ccc([nH]3)c2-c2ccccc2)C=C1,> 100,> 100,> 100,> 100 µM,> 100 µM,> 100,> 100 µM,> 100 µM,,,,,,,,,,,,
COC(=O)C(C(=O)C(=O)Nc1ccc(C)cc1C)c1csc(-n2nc(-c3ccccc3)cc2-c2ccccc2)n1 (stereo unspecified),> 100,> 100,> 100,> 100 µM,,52.6,> 100 µM,> 100 µM,,,,,,,,,,,,
C=C1C(=O)C23[C@H](O)C1CC[C@H]2[C@]12COC3(O)[C@@H](O)[C@@H]1C(C)(C)CC[C@@H]2O,4.89,2.14,29.9,19.3 µM,28.6 µM,38.7,4.86 µM,29 µM,,,,,,,,,,,,
COc1ccccc1-c1cc(=O)c2cc(C)c(C)c(C(=O)O)c2o1,,> 100,> 100,> 100 µM,> 100 µM,> 100,> 100 µM,> 100 µM,,,,,,,,,,,,
OC1=CN=COc2ccccc21,,> 100,> 100,> 100 µM,,> 100,> 100 µM,> 100 µM,,,,,,,,,,,,
CCCCCCC(O)CC[C@H]1CCC[C@@H](C)N1 (stereo partly specified),> 100,> 31.6,> 100,> 100 µM,> 100 µM,> 31.6,> 100 µM,> 100 µM,,,,,,,,,,,,
C[N+](C)(C)CC1CCCCC1=O (stereo unspecified),,49.3,,31.5 µM,80.3 µM,81.2,29.7 µM,> 100 µM,,,,,,,,,,,,
O=c1c2c(-c3ccccc3)c3ccccc3nc2cnn1-c1ccccc1,> 100,> 100,> 100,> 100 µM,> 100 µM,> 100,> 100 µM,> 100 µM,,,,,,,,,,,,
CCOc1ccc(N=C(NC(=O)c2ccccc2)SC)cc1,> 100,> 100,> 100,> 100 µM,> 100 µM,> 100,> 100 µM,> 100 µM,,,,,,,,,,,,
